Measurements: publication PMC13422867, “An orally available PfPKG inhibitor blocks Plasmodium’s infection of the liver” (PLOS Pathogens, 2026)
Where two headings read alike, the source gives them in different places.

What was measured:
[1] = tested on: P. falciparum sporozoites; assay: Sporozoite infection of primary human hepatocytes, high-content imaging; type: cell-based, Plasmodium falciparum; details: Plasmodium falciparum, Hepatocyte
Method: Liver stage antimalarial activity was evaluated using sporozoites from P. falciparum (NF54 strain) and P. cynomolgi bastianellii (B strain). P. falciparum-infected Anopheles stephensi mosquitoes were reared at WRAIR, while P. cynomolgi-infected Anopheles dirus mosquitoes were obtained from the Armed Forces Research Institute of Medical Sciences (AFRIMS), Thailand. Sporozoites were isolated by dissecting salivary glands under sterile conditions, followed by gentle mechanical disruption. Freshly isolated sporozoites were immediately used for hepatocyte infection. […]
(§1) Cells were fixed using 4% paraformaldehyde for 20 minutes at room temperature, followed by three PBS washes, and stored at 4°C until further processing. Parasite detection was performed using species-specific primary antibodies, with P. cynomolgi parasites labeled using a mouse monoclonal anti-Plasmodium GAPDH antibody (1.6 μg/mL, European Malaria Reagent Repository) and P. falciparum parasites detected using a rabbit polyclonal anti-PfHSP70 antibody (1:70 dilution, LS Bio, USA). […]
High-content imaging was performed using the Operetta CLS system (Revvity) and image analysis was performed with Harmony software version 4.9 (Revvity, Waltham, MA, USA). Images were acquired at 10x or 20x magnification using DAPI and TRITC fluorescence channels. […]

P. cynomolgi hypnozoite = assay: Hypnozoite formation in primary simian hepatocytes, high-content imaging; type: cell-based, Plasmodium cynomolgi; details: Plasmodium cynomolgi, Hepatocyte
Method: (§2) Liver stage antimalarial activity was evaluated using sporozoites from P. falciparum (NF54 strain) and P. cynomolgi bastianellii (B strain). P. falciparum-infected Anopheles stephensi mosquitoes were reared at WRAIR, while P. cynomolgi-infected Anopheles dirus mosquitoes were obtained from the Armed Forces Research Institute of Medical Sciences (AFRIMS), Thailand. Sporozoites were isolated by dissecting salivary glands under sterile conditions, followed by gentle mechanical disruption. Freshly isolated sporozoites were immediately used for hepatocyte infection.
(§3) Primary cryopreserved hepatocytes were selected based on host-parasite compatibility: primary simian hepatocytes (lot OQB) for P. cynomolgi and human hepatocytes (lot BGW) for P. falciparum (BioIVT Inc., Baltimore, MD, USA). Cells were thawed according to the manufacturer’s protocol and seeded into 384-well collagen-coated assay plates (Greiner Bio-One, Monroe, NC, USA) using InVitroGro CP plating medium (BioIVT). Seeding densities were optimized for uniform monolayer formation, and hepatocytes were allowed to adhere for 24–48 hours before infection. Sporozoites were added at a 1:1.1 hepatocyte-to-sporozoite ratio within 48 hours post-seeding. Automated robotic systems were used for media changes and compound additions to ensure assay consistency and minimize variability associated with manual pipetting.
(§4) Test compounds (PfPKG inhibitors) and assay drug controls (KDU-691 and tafenoquine) were solubilized in DMSO or PBS and serially diluted into 8- or 12-point, 2- or 3-fold series, achieving final assay concentrations ranging from 20 µM to 0.019 µM. Compounds were introduced using a calibrated pin tool controlled by robotic arms (V&P Scientific), ensuring a 1:1000 dilution into assay wells. Media were replenished daily with fresh drug-containing HCM. […]
as §1
(§5) High-content imaging was performed using the Operetta CLS system (Revvity) and image analysis was performed with Harmony software version 4.9 (Revvity, Waltham, MA, USA). Images were acquired at 10x or 20x magnification using DAPI and TRITC fluorescence channels. Following the established protocol, parasites were classified as hypnozoites or schizonts based on fluorescence intensity (mean and maximum), morphological features (cell roundness and size), and segmentation criteria. […]

P. cynomolgi schizont = assay: Schizont formation in primary simian hepatocytes, high-content imaging; type: cell-based, Plasmodium cynomolgi; details: Plasmodium cynomolgi, Hepatocyte
Method: as §2, §3, §4, §1, §5

[2] = Pharmacokinetics in mice after oral or intravenous dosing; type: in vivo
Method: Plasma concentrations were measured by LC-MS/MS. Non-compartmental PK parameters were calculated using Phoenix WinNonlin. Human half-life predictions were derived by allometric scaling for half-life (t1/2): t1/2,human = t1/2,mouse × (Whuman/Wmouse)^0.25, where W = body weight. The exponent 0.25 is commonly used for time-based pharmacokinetic parameters. We assume an average mouse weight of 0.025 kg and an average human weight of 70 kg.

[3] = tested on: P. berghei sporozoites (PbLuc-GFP); assay: In vivo chemoprotective efficacy against sporozoite liver infection; design: species or system Plasmodium berghei in mice; details: 10 mg/kg x 3; for Prepatent period mean ± sd: blood stages by flow cytometry
Method: In the first experiment, mice were administered three doses, intravenously (IV) or orally (PO), of compound (10 mg/kg) - two prior to sporozoite inoculation to block sporozoite invasion of hepatocytes and the third at 36 hpi to prevent egress of liver stages (Fig 3A). In vivo bioluminescent imaging (IVIS) of mice was utilized to detect and quantify relative parasitemia in the liver and flow cytometry was used to detect the appearance of blood stage parasites. Vehicle-treated mice were used as a negative control.
In vivo chemoprotective efficacy was evaluated using luciferase-expressing P. berghei ANKA sporozoites. […] Liver stage parasite burden was measured 42–48 h p.i. by bioluminescence imaging (IVIS Spectrum). Photon flux from the liver region was quantified using Living Image software. All animal procedures were approved by the Rutgers Institutional Animal Care and Use Committee (IACUC).

CIT = molecular target: T1, CIT (Homo sapiens, UniProt O14578); assay: DiscoverX scanMAX competition binding at 1 µM; details: 1 μM compound
T1 construct: purchased Eurofins (DiscoverX)
T1 sequence (O14578 whole entry): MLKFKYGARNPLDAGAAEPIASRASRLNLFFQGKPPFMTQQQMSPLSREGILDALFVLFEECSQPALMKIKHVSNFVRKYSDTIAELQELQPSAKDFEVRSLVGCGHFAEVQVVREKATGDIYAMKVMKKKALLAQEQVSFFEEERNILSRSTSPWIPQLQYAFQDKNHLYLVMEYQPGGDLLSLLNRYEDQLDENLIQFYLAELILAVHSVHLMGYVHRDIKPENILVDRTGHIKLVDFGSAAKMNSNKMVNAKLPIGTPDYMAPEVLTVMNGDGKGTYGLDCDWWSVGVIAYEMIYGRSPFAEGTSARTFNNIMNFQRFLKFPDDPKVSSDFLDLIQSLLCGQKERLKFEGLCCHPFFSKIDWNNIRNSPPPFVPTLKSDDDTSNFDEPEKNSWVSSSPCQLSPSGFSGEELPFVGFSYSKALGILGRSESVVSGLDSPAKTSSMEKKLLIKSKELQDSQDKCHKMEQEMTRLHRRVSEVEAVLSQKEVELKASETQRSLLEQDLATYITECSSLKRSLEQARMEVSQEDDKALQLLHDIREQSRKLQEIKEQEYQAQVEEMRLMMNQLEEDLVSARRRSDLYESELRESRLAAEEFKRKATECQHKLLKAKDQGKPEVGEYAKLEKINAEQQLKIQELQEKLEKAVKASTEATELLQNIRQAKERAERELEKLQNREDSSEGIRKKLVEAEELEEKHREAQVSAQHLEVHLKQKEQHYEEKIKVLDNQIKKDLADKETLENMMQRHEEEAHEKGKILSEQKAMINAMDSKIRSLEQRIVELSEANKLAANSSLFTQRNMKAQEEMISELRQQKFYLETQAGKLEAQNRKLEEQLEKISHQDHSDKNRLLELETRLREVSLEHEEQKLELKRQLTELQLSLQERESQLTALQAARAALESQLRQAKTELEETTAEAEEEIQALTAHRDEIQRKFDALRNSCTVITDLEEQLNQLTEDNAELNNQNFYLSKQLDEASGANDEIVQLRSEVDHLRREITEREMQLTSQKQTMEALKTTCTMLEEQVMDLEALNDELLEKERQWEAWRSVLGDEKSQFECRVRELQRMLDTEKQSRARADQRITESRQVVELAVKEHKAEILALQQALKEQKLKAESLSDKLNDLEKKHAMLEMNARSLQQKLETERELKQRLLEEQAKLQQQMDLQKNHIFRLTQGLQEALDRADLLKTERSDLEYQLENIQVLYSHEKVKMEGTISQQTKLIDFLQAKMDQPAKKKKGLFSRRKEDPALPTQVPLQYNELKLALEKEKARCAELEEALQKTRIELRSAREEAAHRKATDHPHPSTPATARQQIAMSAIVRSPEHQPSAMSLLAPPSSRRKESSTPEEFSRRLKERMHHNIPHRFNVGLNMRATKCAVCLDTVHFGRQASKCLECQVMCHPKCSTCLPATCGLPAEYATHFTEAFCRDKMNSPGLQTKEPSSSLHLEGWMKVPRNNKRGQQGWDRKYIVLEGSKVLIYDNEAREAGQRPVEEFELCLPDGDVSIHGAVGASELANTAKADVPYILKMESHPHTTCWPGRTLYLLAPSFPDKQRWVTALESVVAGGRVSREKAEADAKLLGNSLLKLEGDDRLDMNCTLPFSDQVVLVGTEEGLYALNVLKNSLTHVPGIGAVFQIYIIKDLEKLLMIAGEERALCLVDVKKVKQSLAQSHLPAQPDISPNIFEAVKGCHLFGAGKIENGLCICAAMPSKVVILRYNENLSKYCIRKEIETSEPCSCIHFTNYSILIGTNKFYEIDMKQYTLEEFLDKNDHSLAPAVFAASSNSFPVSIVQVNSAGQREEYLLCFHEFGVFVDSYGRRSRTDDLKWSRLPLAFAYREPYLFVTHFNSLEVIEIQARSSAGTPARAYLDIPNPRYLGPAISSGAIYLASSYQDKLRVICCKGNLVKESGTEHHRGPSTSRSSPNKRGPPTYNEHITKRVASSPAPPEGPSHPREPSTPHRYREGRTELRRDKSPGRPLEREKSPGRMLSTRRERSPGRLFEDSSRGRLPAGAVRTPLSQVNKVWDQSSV
Method: (§6) A major issue affecting the further development of RUPB-61 is its human-kinome selectivity. To identify its significant off-target liabilities, we quantified its binding affinity for 400 unique human kinases (S4 Fig). The screen consists of binding competitions between the test compound and control ligands for each of the target human kinases.
(§7) Off-target kinase inhibition was assessed using the DiscoverX scanMAX (Eurofins) panel at 1 µM compound concentration. Binding affinities of CIT, ROCK1 and ROCK2 were evaluated using the KdElect assay (Eurofins).

ROCK1 = molecular target: T2, ROCK1 (Homo sapiens, UniProt Q13464); assay: DiscoverX scanMAX competition binding at 1 µM; details: 1 μM compound
T2 construct: purchased Eurofins (DiscoverX)
T2 sequence (Q13464 whole entry): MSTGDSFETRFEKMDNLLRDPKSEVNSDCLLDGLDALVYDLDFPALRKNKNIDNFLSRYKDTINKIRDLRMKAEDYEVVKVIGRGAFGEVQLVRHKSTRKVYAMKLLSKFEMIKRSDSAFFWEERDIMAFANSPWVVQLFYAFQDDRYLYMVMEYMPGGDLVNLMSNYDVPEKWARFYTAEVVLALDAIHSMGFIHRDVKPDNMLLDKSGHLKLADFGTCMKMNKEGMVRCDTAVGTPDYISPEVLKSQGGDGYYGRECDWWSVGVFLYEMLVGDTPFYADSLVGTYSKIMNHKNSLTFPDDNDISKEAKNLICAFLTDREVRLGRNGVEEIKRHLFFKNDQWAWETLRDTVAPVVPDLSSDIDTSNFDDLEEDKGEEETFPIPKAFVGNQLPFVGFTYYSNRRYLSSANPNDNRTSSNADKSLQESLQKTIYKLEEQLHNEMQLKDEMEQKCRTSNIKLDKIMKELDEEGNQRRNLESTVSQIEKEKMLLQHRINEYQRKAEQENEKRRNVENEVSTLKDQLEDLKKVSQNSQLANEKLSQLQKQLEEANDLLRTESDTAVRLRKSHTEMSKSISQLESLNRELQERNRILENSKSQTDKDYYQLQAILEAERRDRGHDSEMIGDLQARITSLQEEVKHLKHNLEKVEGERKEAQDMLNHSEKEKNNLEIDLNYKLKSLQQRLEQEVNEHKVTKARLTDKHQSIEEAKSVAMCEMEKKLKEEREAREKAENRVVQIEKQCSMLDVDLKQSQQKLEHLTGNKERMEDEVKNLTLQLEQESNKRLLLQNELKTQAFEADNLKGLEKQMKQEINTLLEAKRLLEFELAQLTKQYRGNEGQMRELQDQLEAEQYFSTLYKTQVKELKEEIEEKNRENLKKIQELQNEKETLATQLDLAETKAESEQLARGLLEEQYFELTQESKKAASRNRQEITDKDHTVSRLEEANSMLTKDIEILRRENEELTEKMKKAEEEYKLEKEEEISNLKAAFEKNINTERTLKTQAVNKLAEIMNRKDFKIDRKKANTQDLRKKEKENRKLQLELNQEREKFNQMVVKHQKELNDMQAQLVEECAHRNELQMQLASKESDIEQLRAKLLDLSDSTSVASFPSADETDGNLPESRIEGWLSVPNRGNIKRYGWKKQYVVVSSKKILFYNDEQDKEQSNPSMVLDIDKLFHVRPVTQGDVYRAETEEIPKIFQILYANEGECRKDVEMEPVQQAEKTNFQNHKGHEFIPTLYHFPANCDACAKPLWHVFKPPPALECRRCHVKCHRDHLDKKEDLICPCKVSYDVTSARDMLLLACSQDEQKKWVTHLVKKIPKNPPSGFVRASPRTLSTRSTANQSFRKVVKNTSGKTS
Method: as §6, §7

ROCK2 = molecular target: T3, ROCK2 (Homo sapiens, UniProt O75116); assay: DiscoverX scanMAX competition binding at 1 µM; details: 1 μM compound
T3 construct: purchased Eurofins (DiscoverX)
T3 sequence (O75116 whole entry): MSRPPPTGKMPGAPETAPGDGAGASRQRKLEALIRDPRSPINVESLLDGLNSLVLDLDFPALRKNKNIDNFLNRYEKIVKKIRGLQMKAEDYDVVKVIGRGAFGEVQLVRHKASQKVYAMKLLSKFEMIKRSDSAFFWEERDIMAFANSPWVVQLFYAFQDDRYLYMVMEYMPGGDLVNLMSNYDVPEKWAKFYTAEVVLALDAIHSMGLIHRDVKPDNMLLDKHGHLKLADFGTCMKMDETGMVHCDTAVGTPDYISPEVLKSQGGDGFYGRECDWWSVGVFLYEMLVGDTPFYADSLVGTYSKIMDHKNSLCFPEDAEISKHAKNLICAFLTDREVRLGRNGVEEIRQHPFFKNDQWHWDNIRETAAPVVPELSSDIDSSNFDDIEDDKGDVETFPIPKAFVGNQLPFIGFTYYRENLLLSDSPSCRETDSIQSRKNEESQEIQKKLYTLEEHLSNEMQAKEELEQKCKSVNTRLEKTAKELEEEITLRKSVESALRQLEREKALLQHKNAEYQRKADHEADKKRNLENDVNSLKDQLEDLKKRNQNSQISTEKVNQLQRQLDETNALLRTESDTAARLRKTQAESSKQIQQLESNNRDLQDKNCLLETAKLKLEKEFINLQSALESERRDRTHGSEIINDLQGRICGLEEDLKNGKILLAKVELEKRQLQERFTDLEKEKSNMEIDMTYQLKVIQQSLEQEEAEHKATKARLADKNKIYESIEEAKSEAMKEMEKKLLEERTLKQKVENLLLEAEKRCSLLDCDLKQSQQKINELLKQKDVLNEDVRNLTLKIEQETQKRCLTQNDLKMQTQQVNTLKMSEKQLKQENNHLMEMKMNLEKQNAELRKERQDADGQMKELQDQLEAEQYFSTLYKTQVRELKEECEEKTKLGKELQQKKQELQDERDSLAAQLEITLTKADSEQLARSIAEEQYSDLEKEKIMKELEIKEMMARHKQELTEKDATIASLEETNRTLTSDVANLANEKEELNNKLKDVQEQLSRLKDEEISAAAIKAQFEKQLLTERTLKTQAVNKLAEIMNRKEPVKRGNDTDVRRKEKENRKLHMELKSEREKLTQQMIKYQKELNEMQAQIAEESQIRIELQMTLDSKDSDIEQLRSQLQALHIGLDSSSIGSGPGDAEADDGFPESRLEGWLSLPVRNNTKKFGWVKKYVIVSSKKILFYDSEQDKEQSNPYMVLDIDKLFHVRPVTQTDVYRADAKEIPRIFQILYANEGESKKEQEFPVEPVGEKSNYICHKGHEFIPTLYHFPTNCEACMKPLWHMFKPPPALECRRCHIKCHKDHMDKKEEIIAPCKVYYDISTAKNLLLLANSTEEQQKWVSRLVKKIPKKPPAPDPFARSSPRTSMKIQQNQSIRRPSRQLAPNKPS
Method: as §6, §7

[4] = tested on: P. falciparum CamWT and CamC580Y; details: ring-stage assays; cited from earlier work
[5] = tested on: P. berghei sporozoites infecting HepG2 cells; details: cited from earlier work
[6] = mouse, plasma, iv, 10 mg/kg, mice, IV 10 mg/kg, average of 3 mice
[7] = mouse, plasma, po, 10 mg/kg, mice, PO 10 mg/kg, average of 3 mice

C[C@@H]1CN(C)CC[C@@H]1c1cc(-c2ccncc2)c(-c2ccc(F)cc2)[nH]1.Cl.Cl [RUPB-61, 4-{5-[(3S,4S)-1,3-Dimethylpiperidin-4-yl]-2-(4-fluorophenyl)-1H-pyrrol-3-yl}pyridine Dihydrochloride]
IC50 [1]: 79 nM | IC50 (P. cynomolgi hypnozoite): 190 nM | IC50 (P. cynomolgi schizont): 170 nM | human half-life range by allometric scaling ([2]; exponent 0.25, mouse 0.025 kg, human 70 kg): 67.5 to 90 h | half-life in humans by allometric scaling ([2]; humans, scaled from mouse oral half-life): 48 to 96 h | plasma exposure maintained ([2]; mice, 10 mg/kg, for 24 h): > 100 nM | Vss obs ([2]; mice, IV 10 mg/kg, average of 3 mice, 10 mg/kg): 47.29 L/kg | Bioavailability ([2]; mice, PO vs IV 10 mg/kg, 10 mg/kg): 91 %F | AUC(0-t) [2, 6]: 7.43 µM·h | half-life [2, 6]: 11.8 h | AUC(0-inf) ([2]; mouse, plasma, iv, 10 mg/kg, mice, IV 10 mg/kg, average of 3 mice, read-out: AUC INF_obs): 9.8 µM·h | clearance ([2]; mouse, plasma, iv, 10 mg/kg, mice, IV 10 mg/kg, average of 3 mice, read-out: Cl_obs): 49.2 mL/min/kg | Vd ([2]; mouse, plasma, iv, 10 mg/kg, mice, IV 10 mg/kg, average of 3 mice, read-out: Vss obs): 47.3 L/kg | clearance ([2]; mouse, plasma, other: oral and intravenous, 10 mg/kg, mice, 10 mg/kg oral and intravenous, read-out: relative clearance): ~50 mL/min/kg | Cmax [2, 7]: 630 nM | Tmax [2, 7]: 4.17 h | AUC(0-inf) ([2]; mouse, plasma, po, 10 mg/kg, mice, PO 10 mg/kg, average of 3 mice, read-out: AUCINF_obs): 8.9 µM·h | mice showing liver parasitemia as late as 144 hpi ([3]; IV or PO, 10 mice, bioluminescent imaging): none | mice displaying blood stage parasites in the 3 week observation period ([3]; IV or oral): none | No. of mice patent by D21/ No. of mice inoculated ([3]; Intravenous): 0/5 | Prepatent period mean ± sd ([3]; Intravenous): negative | No. of mice patent by D21/ No. of mice inoculated ([3]; Oral): 0/5 | Prepatent period mean ± sd ([3]; Oral): negative | displacement of control ligand for CIT (CIT): > 99% | displacement of control ligand for ROCK1 (ROCK1): > 99% | displacement of control ligand for ROCK2 (ROCK2): > 99% | IC50 against DHA-sensitive CamWT compared with DHA-resistant CamC580Y [4]: similar | activity against P. berghei sporozoites infecting HepG2 cells [5]: active
